Patent publication US7267821B2, “Binding member which binds to both Lewisy and Lewisb haptens, and its use for treating cancer” (Scancell Limited, priority 2001, dated 2007)

Legend:
Assay type in all cases: cell-based
C170 cells = assay: 5FU and SC101/29, crystal violet cell number after 5 days; details: 5 Fluorouracil 0.25 μg/ml alone
Protocol: 3×10^3 C170 cells were plated into microtitre plates and left overnight to adhere. 5FU was added to a final concentrations of 0.25 and 0.5 μg/ml .SC101/29 antibody was also added at concentration of 1-50 μg/ml. […] However, in combination with a non-toxic dose of 5 Fluorouracil (0.25 μg/ml) there was a 70% reduction in cell growth.

Colorectal C170 cells = assay: Cyto Death ELISA for fragmented DNA, with or without cisplatin; details: cisplatin at 3 μg/ml alone
Protocol: The cultures were then washed once and incubated in goat anti-mouse antibody at 100 μg/ml for 30 minutes at room temperature. The cultures were then re-washed and left over night in culture medium with or without cisplatin. The following day the cultures were washed, lysed and tested for the presence of fragmented DNA by a Cyto Death ELISA (Roche). The results were recorded by optical Density measurements at 405 nm.

[1] = system: C170 colorectal tumour cells; assay: Cisplatin then SC101/29, crystal violet viable cells after 4 days; parameters: dose or concentration left out as unconfirmed; details: cisplatin alone
Protocol: […] The cells were left for 4 days when the number of viable cells was determined by crystal violet staining and optical density reading at 550 nm. […] The combination of drug and antibody are synergistic, inducing a 50% reduction in cell growth.

| SMILES | toxicity of dose to C170 cells (C170 cells) | apoptosis (fragmented DNA) (Colorectal C170 cells) | inhibition of C170 cell growth [1] [%] |
| --- | --- | --- | --- |
| O=c1[nH]cc(F)c(=O)[nH]1 [5 Fluorouracil] | non-toxic | – | – |
| N.N.[Cl][Pt][Cl] [cisplatin] | – | induces apoptosis | 10 |
